Measurements from US20050048462A1, “Markers and screens” (priority 2001, published 2005).

What was measured:
Assay type in all cases: cell-based
[1] = system: GFP-tagged gelsolin in hippocampal neurons; assay: Gelsolin accumulation in dendritic spines, receptor subtype specificity
Experimental: Imaging was performed at 37° C. in Tyrode's solution pH 7.3, with GFP-optimized filters (Chroma Technologies, Brattleboro, Vt.) and a MicroMax cooled CCD camera (Princeton Instruments, Trenton, N.J.) controlled by Metamorph software (Universal Imaging corporation, West Chester, Pa.). Cells were stimulated by addition of glutamate or NMDA (5 to 10 μM) for up to 30 minutes. In experiments where specific receptor subtypes were blocked, cells were preincubated for 15 minutes with corresponding antagonists.
In these experiments only 2.5 μM glutamate was used.

[2] = system: hippocampal neurons expressing unmodified GFP; assay: Distribution of unmodified GFP in dendrites after glutamate (control construct); details: 10 μM glutamate
Experimental: (§1) To test this hypothesis we exposed hippocampal neurons expressing GFP-tagged profilin II or profilin I or unmodified GFP to 10 μM glutamate (FIG. 2). […] Glutamate treatment also produced a weaker shift of GFP tagged profilin I into spines (FIG. 2D) which, however, never approached the high levels seen for profilin II.

[3] = system: cultured hippocampal neurons; details: glutamate 100 microM for 30 min
Description: This is relevant to stroke and epilepsy where hyperstimulation of receptors by released glutamate causes neuronal damage. Thus it appears that profilin II tagging occurs even after events that ultimately lead to apoptosis have been set in motion. In toxicity models, profilin II targeting could thus act as a marker for potentially damaged cells at times before cell death occurs.

[4] = system: hippocampal neurons expressing GFP-tagged profilin I; assay: Profilin I-GFP redistribution to spines after glutamate; details: 10 μM glutamate; compared with profilin II
Experimental: as §1

[5] = treated with glutamate (2.5 μM) while blocking specific receptor subtypes
[6] = treated with agonists for specific receptor subtypes

CC(N)(C(=O)O)c1ccc(C(=O)O)cc1 (racemic) [MCPG, (R, S)-[…]-methyl-4-carboxyphenylglycine]
Accumulation (+) of gelsolin, number of cells [1, 5]: 3 | No change (−) of gelsolin, number of cells [1, 5]: 8

Cc1onc(O)c1CC(N)C(=O)O (centres unmarked) [AMPA, amino-3-hydroxy-5-methyl-4-isoxazolepropionic acid]
Accumulation (+) of gelsolin, number of cells [1, 6]: 0 | No change (−) of gelsolin, number of cells [1, 6]: 10

N[C@H](CCCP(=O)(O)O)C(=O)O [APV, D(−)-2-amino-5-phosphonopentanoic acid]
Accumulation (+) of gelsolin, number of cells [1, 5]: 1 | No change (−) of gelsolin, number of cells [1, 5]: 14

N[C@H](C(=O)O)c1cc(O)cc(O)c1 [DHPG, (S)-3,5-dihydroxyphenylglycine]
Accumulation (+) of gelsolin, number of cells [1, 6]: 4 | No change (−) of gelsolin, number of cells [1, 6]: 7

NS(=O)(=O)c1cccc2c1c([N+](=O)[O-])cc1[nH]c(=O)c(=O)[nH]c12 [NBQX, 1,2,3,4-Tetrahydro-6-nitro-2,3-dioxo-benzo[f]quinoxaline-7-sulfonamide]
Accumulation (+) of gelsolin, number of cells [1, 5]: 7 | No change (−) of gelsolin, number of cells [1, 5]: 6

CN[C@H](CC(=O)O)C(=O)O [NMDA, N-methyl-D-aspartate]
Accumulation (+) of gelsolin, number of cells [1, 6]: 11 | No change (−) of gelsolin, number of cells [1, 6]: 16

N[C@@H](CCC(=O)O)C(=O)O [glutamate]
Distribution of unmodified GFP (in words) [2]: did not change the distribution | Number of cells in category − ([2]; GFP construct): 7 | Profilin II-GFP targeting despite degenerative changes (in words) [3]: still targeted to punctate sites within dendrites | Time to excitotoxic changes (loss of normal morphology, swelling of dendrites) [3]: ≤ 2 min | Shift of GFP tagged profilin I into spines (in words) [4]: weaker shift
